# Data: patent publication US20260306428A1 (The Trustees of Indiana University, priority 2023, published 2026)
# Assays:
# Complex I [1] = details: role: inhibitor; cited from earlier work
# AMPK = details: role: activator; cited from earlier work
# SIRT1 = details: role: activator; cited from earlier work
# [2] = system: mitochondria in chondrocytes; assay: Mitochondrial function (TMRM / MitoTracker Green red:green ratio) in cartilage explants; assay type: cell-based, bovine
# [3] = oral, anti-diabetic treatment; cited from earlier work
# [4] = system: reactive oxygen species (ROS); assay: Oxidative stress / ROS staining (CellRox) in sublethally impacted cartilage explants; assay type: cell-based, bovine; details: sublethal impact, 24 hr post-impact, 10 mM
# From the text: (§1) Bovine cartilage explants were impacted with sublethal force to evaluate the injury response in viable chondrocytes.
# (§2) Apoptosis and Oxidative Stress: Cartilage was removed from subchondral bone and stained for apoptosis via activated caspase 3/7signalling (CellEvent, Invitrogen) or ROS (CellRox, Invitrogen) 24 hr post-impact, as shown in FIG. 1A and FIG. 1B, respectively.
# impacted chondrocytes = assay: Chondrocyte viability by live/dead staining in impacted cartilage; assay type: cell-based, bovine; details: for rescue of chondrocyte viability following AMD: AMPK activation (EX229 1 μM and 10 μM) or SIRT1 activation (SRT1720 1 μM and 5 μM); for prevention of impact-induced chondrocyte death: EX229 1 μM and 10 μM, SRT1720 1 μM and 5 μM
# Description: Bovine cartilage was cultured with metformin following an impact from a drop tower device.
# As a preliminary assessment, live/dead staining was evaluated in impacted bovine cartilage treated with specific pharmacological activators of AMPK and SIRT1 or left untreated with appropriate vehicle (DMSO).
# One half of the explant was assessed for cell viability via live/dead staining, and the other half was stained with MitoTracker Green and TMRM to evaluate mitochondrial health.
# caspase 3/7 = assay: Apoptosis via activated caspase 3/7 signalling (CellEvent) in sublethally impacted cartilage explants; assay type: cell-based, bovine; details: sublethal impact, 24 hr post-impact
# From the text: as §1, §2
# [5] = cited from earlier work
# Complex I [6] = details: in vivo; cited from earlier work
# [7] = impacted, EX229 1 μM and 10 μM (FIG. 4A), SRT1720 1 μM and 5 μM (FIG. 4B)
structure (smiles),measurement,setting,value
"CN(C)C(=N)NC(=N)N.Cl [metformin, 1,1-dimethylbiguanide hydrochloride]",inhibition of Complex I,Complex I [1],inhibiting Complex I
same,activation of AMPK,AMPK,activates AMPK
same,activation of SIRT1,SIRT1,activates AMPK and SIRT1
same,mitochondrial dysfunction in impacted chondrocytes,"[2]; impacted explants, 24 hours post-impact, 10 mM and 50 mM",rescues mitochondrial dysfunction in impacted chondrocytes in a dose-dependent manner
same,mitochondrial function of impacted chondrocytes,"[2]; impacted, 125 mM, vs untreated impacted chondrocytes",not significantly different from that of untreated impacted chondrocytes
same,mitochondrial function of non-impacted chondrocytes,"[2]; non-impacted, 125 mM",slightly declined
same,side effects,[3],"nausea, vomiting, diarrhoea, and stomach pain"
same,oxidative stress (ROS),[4],full suppression of oxidative stress
same,cell viability (live/dead staining),"impacted chondrocytes; drop tower impact, 24 hr post-impact, 10 mM",improved cell viability
same,cell viability (live/dead staining),"impacted chondrocytes; drop tower impact, 24 hr post-impact, 50 mM",completely rescue impacted chondrocytes
same,"cell viability (live/dead staining), data not shown","impacted chondrocytes; impacted bovine cartilage, 125 mM, trends similar to mitochondrial function",showed similar trends
same,apoptotic signalling (caspase 3/7),caspase 3/7; 1 mM,only partially reduced apoptotic signalling
same,apoptosis (caspase 3/7 signalling),"caspase 3/7; 1 mM, 5 mM and 10 mM",dose-dependent decrease
same,apoptosis (caspase 3/7),caspase 3/7; 10 mM,completely suppressed apoptosis
Cc1ccc(Oc2nc3cc(-c4ccc5c(ccn5C)c4)c(Cl)cc3[nH]2)cc1C(=O)O [EX229],rescue of chondrocyte viability following AMD,impacted chondrocytes; impacted,rescues the AMD-induced decrease in chondrocyte viability
same,cell viability (live/dead staining),impacted chondrocytes; [7],improved cell viability in impacted chondrocytes in a dose-dependent manner
same,prevention of impact-induced chondrocyte death,impacted chondrocytes; impacted,neither of these activators completely prevented impact-induced chondrocyte death
same,solubility in aqueous solutions,[5],low solubility
CCC1(CCC(C)C)C(=O)NC(=O)NC1=O [amobarbital],block of mitochondrial electron transport at complex I,Complex I [6],blocks mitochondrial electron transport at complex I to prevent chondrocyte dysfunction and apoptosis
O=C(Nc1ccccc1-c1cn2c(CN3CCNCC3)csc2n1)c1cnc2ccccc2n1 [SRT1720],rescue of chondrocyte viability following AMD,impacted chondrocytes; impacted,rescues chondrocyte viability following AMD
same,cell viability (live/dead staining),impacted chondrocytes; [7],improved cell viability in impacted chondrocytes in a dose-dependent manner
same,prevention of impact-induced chondrocyte death,impacted chondrocytes; impacted,neither of these activators completely prevented impact-induced chondrocyte death
same,solubility in aqueous solutions,[5],low solubility
